According to patent US4499093A, “Interferon induction method” (Dso "Pharmachim", priority 1982, dated 1985):
Where “and” joins values, the source holds several entries; their conditions need not be identical. Equal entries are not always repeated. Structures can show the parent of a compound that is named as a salt.

Key:
[1] = internal / in vivo, background; cited from earlier work
Semliki virus = tested on: Semliki virus; set-up: species or system white mice; settings: mouse, in vivo
serum interferon [2] = assay: serum interferon titre in human volunteers; set-up: average geometrical interferon titre: dose or concentration left out as unconfirmed
Procedure: (§1) The interferon titre is determined as follows: by the plaque-inhibition method in L-cells or in human embryonal diploid fibroblasts using the vesicular stomatite virus (Indiana strain) by a detector virus; by the cytopathic effect inhibition method of the same virus (using human embryonal diploid fibroblasts). It is expressed in IU/ml by comparing the reference preparations of mouse or human interferon.

[3] = tested on: Mouse peritoneal leucocytes; assay: cells; settings: Leucocyte, read-out: MinIFN-IC (minimum interferon-inducing concentration)
Procedure: (§2) In monolayer cellular cultures (L-cells, mouse embryonal fibroblasts, human diploid embryonal pulmonary fibroblasts), the interferon titre is measured and the antiviral resistance is simultaneously determined. […] Incubation of the cultures is carried out for 24 hours at 37° C.; The culture medium after determining its cytotoxicity microscopically is collected for the interferon titre measurement. The cells are rinsed in Hanks' saline solution and inoculated by 100 TCID50 virus of the vesicular stomatite (Indiana strain). The cytopathic effect and the infectious virus yield are specified the basis of which the state of the antiviral resistancy is determined.
as §1

[4] = tested on: Mouse peritoneal leucocytes
Procedure: as §2, §1

[5] = tested on: some DNA and RNA-containing viruses; settings: cellular cultures, background; cited from earlier work
acute toxicity (LD50) = assay: acute toxicity (LD50); set-up: species or system white mice; settings: mouse, in vivo; intravenous; read-out: single LD50
L-cells [6] = tested on: L-cells
Procedure: as §2, §1

[7] = tested on: Human diploid embryonal fibroblasts; assay: cells; settings: Fibroblast, read-out: MinIFN-IC (minimum interferon-inducing concentration)
Procedure: as §2, §1

Herpes simplex 1 virus = tested on: Herpes simplex 1 virus; set-up: species or system white mice; settings: mouse, in vivo
L-cells [8] = assay: cells; settings: Mus musculus, read-out: MinIFN-IC (minimum interferon-inducing concentration)
Procedure: as §2, §1

influenza virus A = influenza virus A experimental infection in white mice; assay type: in vivo; settings: oral or intraperitoneal single dose 24 h before, 24 or 72 h after inoculation
[9] = tested on: Mouse embryonal fibroblasts; assay: interferon induction in mouse embryonal fibroblasts
Procedure: as §2, §1

[10] = tested on: Human diploid embryonal fibroblasts
Procedure: as §2, §1

serum interferon [11] = assay: interferon-inducing activity in vivo in white mice (serum interferon titre)
Procedure: Serum samples for measuring the interferon titre are taken on the 6th, 12th, 24th, 48th, 72nd and 96th hour (mixed serum sample of minimum 8 animals).
as §1

[12] = intravenous, 0.1 mg/kg, 48th hour

## CCN(CC)CCOc1ccc2c(c1)C(=O)c1cc(OCCN(CC)CC)ccc1-2 [tilorone-hydrochloride]
[1]
  toxicity: toxic and unsuitable for clinical application

## poly I:C
[1]
  toxicity: toxic internally

## OCCN(CCO)c1nc(N2CCCCC2)c2nc(N(CCO)CCO)nc(N3CCCCC3)c2n1 [Dipyridamole, 2,6-bis (diethanolamino)-4,8-dipiperidinopyramido [5,4-d]pyrimidine]
Semliki virus
  Lethality % M ± m: 30.0 ± 15.27% and 40.0 ± 16.32%
  Lethality No.: 3/10 and 4/10
  Mean survival time: 22.6 ± 3.77 days and 20.7 ± 3.82 days
  Protection coefficient: 2.4 and 1.8
  antiviral effect in oral application vs intraperitoneal: much stronger
  protective effect: marked protective effect
  t: 3.02 and 2.64
Serum interferon [2]; 0 hours after administration (baseline)
  Mean serum interferon titre, positive responders: 5.2 ± 1.7 IU/ml
Serum interferon [2]; 100 mg single oral dose, 20 men and women, 24th and 48th hour
  subjects with marked raising of serum interferon level: 80%
Serum interferon [2]; 24-48 hours after administration
  Mean serum interferon titre, positive responders: 1069.0 ± 479.7 IU/ml
Serum interferon [2]; 24-48 hours, oral
  increase of average geometrical interferon titres vs initial level: Over 200 time
Serum interferon [2]; 24-48 hours, oral single doses as printed
  average geometrical interferon titre: 1069.0±479.7 IU/ml
Serum interferon [2]; initial level before dipyridamole
  average geometrical interferon titre, initial level: 5.2±1.7 IU/ml
Serum interferon [2]; oral, single doses (1-2 mg/kg)
  treated subjects with marked interferon production: 80%
[3]
  minimal effective concentration: 3 µM
[4]
  Maximum interferon titre: ≥ 256 IU/ml
  OptINF-IC (optimum interferon-inducing concentration): 100-1000
  interferon titre compared with double-stranded RNA of phage f2: higher than that induced by double-stranded RNA of phague f2 of E. coli
  optimum interferon-inducing concentration: 100 µM
[5]
  antiviral effect in in vitro testing: antiviral effect
Acute toxicity (LD50)
  LD50: 150 mg/kg
L-cells [6]
  Maximum interferon titre: ≥ 128 IU/ml
  OptINF-IC (optimum interferon-inducing concentration): 30-300 micromol/1
  induced interferon titre: over 128 IU/ml
  induced interferon titres: exceed 128 IU/ml
  interferon production compared with poly I:C: markedly exceeds the interferon production of poly I:C
[7]
  minimal effective concentration: 10 µM
Herpes simplex 1 virus
  Lethality % M ± m: 55.0 ± 11.41%
  Lethality No.: 11/20
  Mean survival time: 17.3 ± 2.64 days
  Protection coefficient: 1.81
  antiviral effect in oral application vs intraperitoneal: much stronger
  protective effect: marked protective effect
  t: 3.94
L-cells [8]
  minimal effective concentration: 10 µM
Influenza virus A
  protective effect: marked protective effect
[9]
  OptINF-IC (optimum interferon-inducing concentration): 300 micromol/1
[9]; Mus musculus, Fibroblast, read-out: MinIFN-IC (minimum interferon-inducing concentration)
  minimal effective concentration: 100 µM
[9]; induced by OptINF-IC
  Maximum interferon titre: 16 IU/ml
[10]
  Maximum interferon titre: 16-32
  OptINF-IC (optimum interferon-inducing concentration): 100-300 micromol/1
Serum interferon [11]; even 96 hours after administration
  preservation of high serum interferon levels: relatively continuous preservation of the high interferon levels
Serum interferon [11]; intraperitoneal, 16.7 mg/kg
  time of peak interferon levels: 24 to 48 h
Serum interferon [11]; intraperitoneal, 16.7 mg/kg, 24-48th hour
  maximum titres / peak levels: 256 IU/ml
Serum interferon [11]; intraperitoneal, 16.7 mg/kg, until 120th hour
  interferon concentrations until the 120th hour: Marked concentrations
Serum interferon [11]; intraperitoneal, lower doses, under 0.1 mg/kg inclusive
  interferon-inducing activity of lower doses: lower but better marked activity
Serum interferon [11]; intraperitoneal, "or more"
  effective doses: 0.1 to 16.7 mg/kg
Serum interferon [11]; intravenous
  effective doses: 0.01 to 50 mg/kg
Serum interferon [11]; intravenous, 0.01 mg/kg, 72nd hour
  Interferon titre in serum: 16 IU/ml
Serum interferon [11]; intravenous, 0.05 mg/kg, 24th hour
  Interferon titre in serum: < 4 IU/ml
Serum interferon [11]; intravenous, 0.05 mg/kg, 48th hour
  Interferon titre in serum: 64 IU/ml
Serum interferon [11]; intravenous, 0.05 mg/kg, 72nd hour
  Interferon titre in serum: 32 IU/ml
Serum interferon [11]; intravenous, 0.1 mg/kg, 6th hour
  Interferon titre in serum: ≤ 4 IU/ml
Serum interferon [11]; intravenous, 0.1 mg/kg, 12th hour
  Interferon titre in serum: ≤ 4 IU/ml
Serum interferon [11]; intravenous, 0.1 mg/kg, 24th hour
  Interferon titre in serum: ≤ 4 IU/ml
Serum interferon [11]; [12]
  Interferon titre in serum: 128 IU/ml
  maximum titres: 128 IU/ml
Serum interferon [11]; intravenous, 0.1 mg/kg, 72nd hour
  Interferon titre in serum: 32 IU/ml
Serum interferon [11]; intravenous, 0.2 mg/kg, 24th hour
  Interferon titre in serum: ≤ 4 IU/ml
Serum interferon [11]; intravenous, 0.2 mg/kg, 48th hour
  Interferon titre in serum: 32 IU/ml
Serum interferon [11]; intravenous, 0.2 mg/kg, 72nd hour
  Interferon titre in serum: 32 IU/ml
Serum interferon [11]; intravenous, 0.6 mg/kg, 6th hour
  Interferon titre in serum: < 4 IU/ml
Serum interferon [11]; intravenous, 0.6 mg/kg, 12th hour
  Interferon titre in serum: 8 IU/ml
Serum interferon [11]; intravenous, 0.6 mg/kg, 24th hour
  Interferon titre in serum: 32 IU/ml
Serum interferon [11]; intravenous, 0.6 mg/kg, 48th hour
  Interferon titre in serum: 16 IU/ml
Serum interferon [11]; intravenous, 0.6 mg/kg, 72nd hour
  Interferon titre in serum: 16 IU/ml
Serum interferon [11]; intravenous, 1.8 mg/kg, 12th hour
  Interferon titre in serum: 16 IU/ml
Serum interferon [11]; intravenous, 1.8 mg/kg, 24th hour
  Interferon titre in serum: 16 IU/ml
Serum interferon [11]; intravenous, 1.8 mg/kg, 72nd hour
  Interferon titre in serum: 8 IU/ml
Serum interferon [11]; intravenous, 5.5 mg/kg, 12th hour
  Interferon titre in serum: 16 IU/ml
Serum interferon [11]; intravenous, 5.5 mg/kg, 24th hour
  Interferon titre in serum: 16 IU/ml
Serum interferon [11]; intravenous, 17.7 mg/kg, 12th hour
  Interferon titre in serum: 32 IU/ml
Serum interferon [11]; intravenous, 17.7 mg/kg, 24th hour
  Interferon titre in serum: 16 IU/ml
Serum interferon [11]; intravenous, 50.0 mg/kg, 12th hour
  Interferon titre in serum: 8 IU/ml
Serum interferon [11]; intravenous, 50.0 mg/kg, 24th hour
  Interferon titre in serum: 8(4) IU/ml
Serum interferon [11]; intravenous, higher doses than 0.1 mg/kg
  time of maximum interferon levels: 12 to 24 h
Serum interferon [11]; oral
  time of maximum titres: 24 to 48 h
  interferon levels at 120th hour: marked interferon levels in the blood
Serum interferon [11]; oral, 6.25-100 mg/kg, 12th hour
  serum interferon level at 12th hour: 128-256 IU/ml
Serum interferon [11]; oral, 12.5 or 25 mg/kg, 48th hour
  peak serum interferon values: 4096-8192 IU/ml
Serum interferon [11]; oral, 24-48 hour
  maximum serum interferon titres: 4096-8192 IU/ml
Serum interferon [11]; oral, listed as dipyridamole
  interferon levels at 120th hour: higher than those in the control (placebo) group
Serum interferon [11]; oral, single doses, 12th hour
  serum interferon level at 12th hour: 128-256 IU/ml
